Measured values reported in patent US20220017877A1, “BILIRUBIN OXIDASE ACTIVITY IMPROVING METHOD, AND BILIRUBIN OXIDASE PRODUCT” (OZEKI CORPORATION, priority 2018, published 2022).

Target: T1, recombinant BOD (bilirubin oxidase) derived from Myrothecium verrucaria MT-1 (Albifimbria verrucaria, UniProt Q12737)
T1 construct: made in house; host or cells: Aspergillus sp
T1 sequence (Q12737 39-572): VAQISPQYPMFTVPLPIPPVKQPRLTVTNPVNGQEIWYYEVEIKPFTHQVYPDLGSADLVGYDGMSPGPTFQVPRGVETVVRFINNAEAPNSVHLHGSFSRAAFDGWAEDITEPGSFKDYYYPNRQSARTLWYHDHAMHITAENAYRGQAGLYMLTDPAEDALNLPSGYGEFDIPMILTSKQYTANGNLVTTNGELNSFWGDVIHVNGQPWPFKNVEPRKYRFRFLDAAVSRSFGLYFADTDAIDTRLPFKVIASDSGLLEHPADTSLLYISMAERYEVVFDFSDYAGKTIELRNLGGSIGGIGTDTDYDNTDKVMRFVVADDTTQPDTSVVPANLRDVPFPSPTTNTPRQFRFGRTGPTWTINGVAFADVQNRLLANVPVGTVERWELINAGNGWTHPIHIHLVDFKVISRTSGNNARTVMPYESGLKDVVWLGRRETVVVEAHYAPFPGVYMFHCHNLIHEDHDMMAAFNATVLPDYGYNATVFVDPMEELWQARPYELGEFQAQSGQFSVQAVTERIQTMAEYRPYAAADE
Assay: BOD activity after leaving the BOD solution with an activity improving agent or comparative substance at 30° C. in a deoxygenated atmosphere (Test Example 1)
Assay type: biochemical
Settings: relative to Day 0, additive concentration as in Table 1; for Activity (%) Day 47: left 47 days at 30° C.
Experimental: A BOD solution, which contains: a BOD; and the present activity improving agent or a comparative substance, was left in an environment at a temperature of 30° C. in a deoxygenated atmosphere for a certain period of time. After the BOD solution was left as above, improvement of the BOD activity by the present activity improving method was evaluated by measurement of the BOD activity.
In Test Example 1, a BOD gene derived from a Myrothecium verrucaria MT-1 (GenBank accession number: D12579.1) was introduced into an Aspergillus sp., and then a recombinant BOD (hereinafter, also referred to simply as “BOD”) expressed in the Aspergillus sp. was purified by using a well-known technique and then used as the BOD. The BOD gene derived from the Myrothecium verrucaria MT-1 was codon-optimized in accordance with a gene sequence of the Aspergillus sp., and then introduced into the Aspergillus sp. Further, the BOD thus purified was dissolved in a 50 mM glycine-KOH (pH 8.5) buffer so that the concentration of the BOD became 1.0 mg/mL. Then, a resultant solution was used as a BOD enzyme solution.
The enzymatic activity of the BOD was measured as follows. To 1780 μL of a 50 mM potassium phosphate buffer (pH 6.5), 200 μL of a 20 mM ABTS substrate solution was added, so that a mixed solution (1980 μL) was prepared. This mixed solution was incubated for 1 min at 37° C. Thereafter, 20 μL of a solution containing the BOD (specifically, a BOD solution for evaluation, which will be described later) was added to the mixed solution, and a resultant mixed solution (2 mL) was incubated at 37° C. While the mixed solution was incubated, the absorbance of the mixed solution at a wavelength of 436 nm was measured immediately after that addition of the BOD solution for evaluation (at 0 seconds) and thereafter every 20 seconds. On the basis of (i) the absorbance of the mixed solution at a wavelength of 436 nm immediately after the addition of the BOD solution for evaluation and (ii) the absorbance of the mixed solution at a wavelength of 436 nm after a lapse of 1 minute from the addition of the BOD solution for evaluation, calculation was carried out for obtaining an increase rate per minute of the absorbance of the mixed solution at a wavelength of 436 nm after the addition of the BOD solution for evaluation. The BOD activity (unit) in the BOD solution for evaluation was calculated from the increase rate. In the present specification, the amount of enzyme for oxidizing 1 μmol of ABTS per minute was defined as one unit.
A specific test method of Test Example 1 is as follows. To a BOD enzyme solution containing a BOD, one of the above-described present activity improving agents was added, so that a BOD solution (which is the BOD solution according to an embodiment of the present invention) was prepared. Further, one of the above-described comparative substances was added to the BOD enzyme solution, so that another BOD solution was prepared. In addition, still another BOD solution was prepared by adding, to the BOD enzyme solution, distilled water in place of the activity improving agent or the comparative substance, so that a control (denoted as Without additive in Tables 1 to 3) was prepared. The final concentration of the activity improving agent or the comparative substance in each of the above BOD solutions was shown in “mM” or “percentage (%)” (amount (g) of the activity improving agent or the comparative substance relative to 100 mL of the BOD solution) in Table 1.
Thereafter, one of these BOD solutions and a deoxygenating agent (Anaero Pack manufactured by Mitsubishi Gas Chemical Company, Inc.) were included in one container. Then, the container was sealed, so that a BOD container was prepared. The BOD container was left in an environment at a temperature of 30° C. in a deoxygenated atmosphere for 47 days (Table 2) or 14 days (Table 3). […]

Row | Compound | Activity (%) Day 47 | Activity (%) Day 14 (left 14 days at 30° C.)
1 | O=C1O[C@H]([C@@H](O)CO)C(O)=C1O [L-ascorbic acid] | 151% | 
2 | O=c1[nH]c(=O)c2[nH]c(=O)[nH]c2[nH]1 [Uric acid, uric acid] | 155% | 156%
